Entries after “also recorded” stand apart in the source; their conditions may differ.
Tests used:
ATM = experiment: Western blot of ATM signaling (phospho-Kap1, phospho-ATM); type: cell-based, mouse
Description: To probe the role of ATM, the ADDIT assay was used in cells treated with the ATM specific inhibitor KU55933 (as described in Hickson et al., 2004, Cancer Research 64, 9152-9159) or with siRNA to ATM. To confirm the inhibition of ATM, the phosphorylation level was examined of the ATM substrate Kap1 and, as a control, an ATR kinase substrate Chk1 by western blot. Cultured cells were pretreated with KU55933, siA™ or DMSO control and then exposed to camptothecin (CPT), a DNA damaging agent.
To further probe the role of ATM in telomere length, ATM was activated in cultured cells. […] PARP is an essential enzyme involved in recognition and repair of DNA breaks. […] Similar to wild-type control, the most common class of telomere addition was Class 3 that creates the most complementarity between the 3′ end and the mTR sequence (Table 3). To examine whether this stimulation of telomere elongation acts through ATM, epistasis was examined by treating cells with both Olaparib and KU55933.
To detect phospho-proteins, 1× lysis buffer made of final concentration of 1×RIPA™ (Cell Signaling, #98016S), 1× protease inhibitor cocktail, 1× PhosSTOP™ (Roche, 4906845001) was added directly to cells on the dish after washing with PBS. Protein concentration was measured with a BCA protein assay kit (Thermo, #23227). Typically 10 μg of protein from each sample was applied to SDS-PAGE gels (Biorad, #456-1084) and transferred to nitrocellulose membranes in transfer buffer. After blocking with the Odyssey™ blocking buffer (LI-COR, #927-40000), membranes were incubated at 4° C. overnight or 1 hr at RT with the following primary antibodies: anti-phospho-Kap1 (Bethyl Lab, #A300-767A); anti-phospho-CHK1 (Cell Signaling, #2348S); anti-phospho-ATM (Millipore, #05-740); anti-HA (Santa Cruz, #sc-7392); anti-Actin (Santa Cruz, #sc-1616); anti-PAR (Trevigen, #4335-MC-100). […] Band intensities were quantified using the Odyssey™ software (LI-COR) and normalized to Actin levels. […]

SL13 cells = experiment: Bulk telomere length, Southern blot, SL13 long-term culture; type: cell-based, mouse
Description: ATM has been proposed to play different roles in signaling telomere dysfunction in human and mouse cells. Since it is not yet clear whether the damage signaling is mechanistically linked to telomere elongation, and given the discrepant reports of the role of ATM in human telomere length, the role of ATM in human cells was revisited.
As an independent test of Olaparib on telomere length, telomeres were examined by Southern blot in cultured SL13 cells grown in the presence of Olaparib for an extended time. […] Taken together, the experiments described here indicate that inhibition of ATM blocks telomere elongation while activation of ATM stimulates telomere elongation.
Telomere lengths of SL13 cells treated with 10 μM KU55933 were measured at different population doublings (PD) using genomic Southern blot analysis. […] Boxed numbers indicate the pixel positions corresponding to the blot.
To examine the in vivo chr4 cleavage, genomic DNA of SL13 treated with doxycycline for various time points was extracted using the Puregene™ Core Kit A (Qiagen) and digested with NcoI restriction enzyme (NEB). […] Labeled probe was counted and 10^6 counts/ml (probe) or 10^4 counts/ml (2-log ladder) was denatured at 100° C. for 5 minutes and added to the pre-hybridization solution and hybridized overnight at 42° C. […]

Compound: O=c1cc(-c2cccc3c2Sc2ccccc2S3)oc(N2CCOCC2)c1 [KU55933]
- Kap1-S824 phosphorylation (ATM; cells pretreated, then exposed to camptothecin (CPT)): blocked Kap1 phosphorylation
- bulk telomere length (SL13 cells; SL13 cells grown in 10 μM KU55933, different population doublings): telomere shortening also occurred, although at a somewhat slower rate

Compound: O=C(c1cc(Cc2n[nH]c(=O)c3ccccc23)ccc1F)N1CCN(C(=O)C2CC2)CC1 [Olaparib]
- phosphorylation of ATM-S1981 (ATM; Olaparib-treated cells): increased phosphorylation of ATM-S1981
- Kap1 phosphorylation in response to PARP1 inhibition (ATM; compared to DMSO-treated control cells): increased ATM phosphorylation of Kap1; also recorded: increased level of Kap1 phosphorylation
- telomere length by Southern blot (SL13 cells; SL13 cells grown in presence of Olaparib for 55 population doublings): Telomere length gradually increased; also recorded: gradually increased after 25 PDs

— patent publication US20180110777A1, “METHOD FOR REGULATION OF TELOMERE LENGTH” (The Johns Hopkins University, priority 2015, published 2018)
